Experimental data published in PubChem BioAssay AID179 (DTP/NCI, 2004).
The source made the active and inactive calls.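 Rule for the calls: active = compounds giving half or more protection of infected cells from virus-caused growth loss, again on retest; inactive = the rest.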

Tested on: CEM cells HIV-1 protection, formazan growth assay
Assay: NCI AIDS Antiviral Assay
Details: for IC50: measured here: growth of uninfected CEM cells
Outline: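 Screen of anti-HIV-1 activity in human CEM cells using a formazan-based growth measurement at five drug concentrations. Hits with 50% or greater protection were repeated, and confirmation required reproducible complete protection.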

## CCOC(=O)c1c(NS(=O)(=O)c2ccc(C)cc2)sc2c1CCCC2
  EC50: > 200 µM
  IC50: 25.1 µM

## CSC1=NC=C(C#N)C2=NC(c3cccs3)NN12 (centres undefined)
  EC50: > 339 µM
  IC50: 20.4 µM

## CC(C)C(Sc1nc(-c2ccccc2)c(-c2ccccc2)[nH]1)C(=O)N/N=C/c1ccc(Cl)cc1 (centres undefined)
  EC50: > 74.1 µM
  IC50: > 74.1 µM

## Clc1ccc(C2=Cc3nc2c(-c2ccccc2)c2ccc([nH]2)c(-c2ccccc2)c2nc(c(-c4ccccc4)c4ccc([nH]4)c3-c3ccccc3)C=C2)cc1
  EC50: > 200 µM
  IC50: > 200 µM

## CCc1cccc(C(C)C)c1NC(=O)C(=O)C(CC(=O)Nc1ccc(Cl)c(Cl)c1)C(=O)OC (centres undefined)
  EC50: > 10.7 µM
  IC50: > 10.7 µM

## Cc1[nH]c(=S)[nH]c(=O)c1CCl
  EC50: > 200 µM
  IC50: 107 µM

## CSc1c(C#N)c(S)[nH]c(=O)c1C#N
  EC50: 83.2 µM
  IC50: 126 µM

## O=C1CCSc2c(cnc3ccccc23)N1
  EC50: > 200 µM
  IC50: > 200 µM

## Cc1sc2c(c1C)c(=O)[nH]c1c(C#N)c(-c3ccc(Cl)cc3)cn12
  EC50: 186 µM
  IC50: > 200 µM

## NC(=S)N/N=C/c1cccc(CC(O)(C(F)(F)F)C(F)(F)F)n1
  EC50: > 200 µM
  IC50: 5.89 µM

## CC(=O)Nc1c(C)cc2c(nc3n2CCC3OC(C)=O)c1[N+](=O)[O-] (centres undefined)
  EC50: > 200 µM
  IC50: > 200 µM

## CCSC(CC(O)C(O)C(O)CO)SCC (centres undefined)
  EC50: > 200 µM
  IC50: > 200 µM

## CCOC(=O)CC(Sc1ccccc1)Sc1ccccc1
  outcome: inactive

## CC1(C)CC(=O)c2c(nc3c(ccc4ccccc43)c2-c2ccc(NC(=O)CCCC(=O)Nc3ccc(-c4c5c(nc6c4ccc4ccccc46)CC(C)(C)CC5=O)cc3)cc2)C1
  EC50: > 50.1 µM
  IC50: > 50.1 µM

## Nc1cc(Cl)ccc1N1C(=O)CCC1=O
  EC50: 166 µM
  IC50: > 200 µM

## C[N+](C)(C)CC(CC(=O)[O-])C1CC1 (centres undefined)
  EC50: > 1350 µM
  IC50: > 1350 µM

## N#CC(C#N)=Cc1ccccc1C(=O)O
  EC50: > 200 µM
  IC50: 110 µM

## O=C(O)CNS(=O)(=O)c1ccc(NC(=O)c2ccc(Cl)cc2)cc1
  outcome: inactive

## CCOCCOC(=O)C1CCC(=O)N1CN(C(C)=O)c1cc(OC)ccc1OC (centres undefined)
  outcome: inactive

## COC1OC(CO)C(O)C(OC(C)=O)C1NC(=O)N(CCCl)N=O (centres undefined)
  EC50: > 676 µM
  IC50: 417 µM

## O=C(NS(=O)(=O)Nc1ccc(Cl)cc1)OCc1ccc(Cl)cc1Cl
  EC50: > 200 µM
  IC50: 34.7 µM

## O=C(Cn1c(=O)oc2ccc(C(=O)c3ccc(F)cc3)cc21)c1ccccc1
  EC50: > 200 µM
  IC50: 123 µM

## C(=N/NC1=NCCN1)/c1c2ccccc2c(/C=N\NC2=NCCN2)c2ccccc12
  EC50: > 1.07 µM
  IC50: 0.0363 µM

## CC[N+](CC)=c1ccc2nc3c(cc(N)c4ccccc43)oc-2c1
  EC50: > 200 µM
  IC50: 3.8 µM

## O=C(O)c1cc(O)c2ccc(N=Nc3ccc(/C=C/c4ccc(N=Nc5ccc6c(O)cc(C(=O)O)nc6c5O)cc4S(=O)(=O)O)c(S(=O)(=O)O)c3)c(O)c2n1
  EC50: 10.2 µM
  IC50: 50.1 µM

## CCOC(=O)CCN1C(=O)c2c(NC(=O)C(=O)O)cccc2S1(=O)=O
  EC50: > 200 µM
  IC50: > 200 µM

## COC(=O)C(=O)C(C(=O)C(=O)Nc1ccc(Cl)cc1C)c1nc2ccc(C(=O)c3ccccc3)cc2[nH]c1=O (centres undefined)
  outcome: inactive

## COC(=O)CCCc1ccc2c(c1)CC1(Cc3ccccc3C1)C2
  EC50: > 200 µM
  IC50: > 200 µM

## CC1(C)C2CCC1C(=O)C(C=O)C2 (centres undefined)
  EC50: > 200 µM
  IC50: > 200 µM

## Cc1ccc(S(=O)(=O)OCCOC(Cc2ccccc2)n2cc(C)c(=O)[nH]c2=O)cc1 (centres undefined)
  EC50: > 200 µM
  IC50: > 200 µM

## CN1CCN(C(=S)N(C(=O)c2cccs2)c2ccccc2)CC1
  EC50: > 105 µM
  IC50: > 105 µM

## NS(=O)(=O)c1ccc(NC(=O)c2cccc3cc4ccccc4nc23)cc1
  EC50: > 79.4 µM
  IC50: 4.79 µM

## CC1=C(c2cc(C(=O)Nc3cccc(C(F)(F)F)c3)nc(NC#N)n2)Sc2ccccc2N1
  outcome: inactive

## CC(C)OP(=O)(OC(C)C)c1ncn(-c2ccc([N+](=O)[O-])cc2)n1
  EC50: > 513 µM
  IC50: 468 µM

## Nc1cc2c(cc1-n1cccc1)oc1ccccc12
  EC50: > 200 µM
  IC50: 19.5 µM

## Cc1ccc(S(=O)(=O)Oc2nc3ccccc3nc2OS(=O)(=O)c2ccc(C)cc2)cc1
  EC50: > 200 µM
  IC50: 38.9 µM

## O=C(/C=C/c1ccco1)c1ccc(NCc2nc3ccccc3[nH]2)cc1
  EC50: > 20.9 µM
  IC50: > 20.9 µM

## O=C1OC(=O)C2C1C1(c3ccccc3)C(=O)C2(c2ccccc2)C(c2ccccc2)=C1c1ccccc1 (centres undefined)
  outcome: inactive

## O=C1[C@@H]2C(c3cccc([N+](=O)[O-])c3)=NO[C@@H]2C(=O)N1c1ccc(Cc2ccc(N3C(=O)[C@H]4C(c5cccc([N+](=O)[O-])c5)=NO[C@H]4C3=O)cc2)cc1
  EC50: > 38 µM
  IC50: > 38 µM

## CCCC(=O)n1[nH]c(=O)n(-c2ccc(Cl)cc2)c1=O
  EC50: > 200 µM
  IC50: > 200 µM

## O=c1cc(C(F)(F)F)c2cc3c(cc2o1)NCCC3
  EC50: > 9.77 µM
  IC50: > 9.77 µM

## CCN(CC)CCOc1cccc(NC(=O)CN(CC)CC)c1
  EC50: > 200 µM
  IC50: 81.3 µM

## O=c1ccn(C2SC(CO)CC2F)c(=O)[nH]1 (centres undefined)
  EC50: > 25.1 µM
  IC50: > 25.1 µM

## Nc1ccc(C2CCC(C(=O)O)N2)cc1 (centres undefined)
  EC50: > 200 µM
  IC50: > 200 µM

## NC(=O)NC1=NC(Cc2ccccc2)C(=O)N1Cc1ccccc1 (centres undefined)
  EC50: > 200 µM
  IC50: 182 µM
